In data set [1] the target is T1, human liver FBPase (Homo sapiens, UniProt P09467).
T1 construct: host or cells: E. coli
T1 sequence (P09467 2-338 limits assumed): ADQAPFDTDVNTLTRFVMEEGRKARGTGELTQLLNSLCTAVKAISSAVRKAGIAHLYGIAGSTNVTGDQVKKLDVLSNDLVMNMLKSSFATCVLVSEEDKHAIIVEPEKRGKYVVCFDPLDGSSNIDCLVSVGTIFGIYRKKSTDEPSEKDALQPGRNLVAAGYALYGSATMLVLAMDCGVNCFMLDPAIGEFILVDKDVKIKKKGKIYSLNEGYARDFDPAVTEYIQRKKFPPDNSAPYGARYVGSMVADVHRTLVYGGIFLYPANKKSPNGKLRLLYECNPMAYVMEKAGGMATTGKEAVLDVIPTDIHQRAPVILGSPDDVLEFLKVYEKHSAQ
The data set is described as follows: FBPase assay (malachite green phosphate release). Type of data set: biochemical. As to conditions: recombinant human liver FBPase, 50 μM fructose-1,6-bisphosphate, pH 7.2, 50 minutes at room temperature. The protocol:
The following tests were carried out for evaluating the inhibitory activity of the compounds of the present invention against human liver FBPase (Swissprot Data base reference PO9467, entry F16P_HUMAN).
Enzyme preparation: Human liver FBPase cDNA (NM_000507) was purchased from Origene Technologies, Inc, subcloned in a vector for expression in E. Coli., and sequenced. Recombinant human liver FBPase (hIFBPase) was purified according to the following protocol that uses heat denaturation similarly to that described by El-Maghrabi et. al. [El-Maghrabi, M. R. et al. “Isolation of a human liver fructose-1,6-bisphosphatase cDNA and expression of the protein in Escherichia coli.” J Biol Chem 268:9466-9472, 1993.]. […] Purity of the enzyme preparation was >90% as assessed by Mass spectrometry.
In vitro activity: Recombinant human liver FBPase (hIFBPase) activity was assayed through measuring the inorganic phosphate release that results from the hydrolysis of Fructose-1,6-bisphosphate by the enzyme. […] Anal. Biochem., 171:266-270, 1988], inorganic phosphate can be readily quantified by spectrophotometry at 620 nm after complexation with ammonium molybdate/malachite green reagent. […] Under these conditions, the assay was linear with time and able to detect FBPase inhibition after spectrophotometric read-out at 620 nm.

These results are taken from patent US7964633B2, “Sulfonamide derivatives” (Hoffmann-La Roche Inc., priority 2006, dated 2011).

The structures appear in SMILES notation.

For orientation: IC50 means the concentration needed to halve the response being measured. Regarding `Cc1cccc(S(=O)(=O)NC(=O)NCCCCCCNC(=O)NS(=O)(=O)c2cccc(C)c2)c1` [Example 8, N,N′-[hexane-1,6-diylbis(iminocarbonyl)]bis(3-methylbenzenesulfonamide)], the half-maximal inhibitory concentration (IC50) in data set [1] is 22 nM.

For orientation: melting point means the temperature, or range, at which the solid turns liquid. `O=C(NCCSSCCNC(=O)NS(=O)(=O)c1cccc(Cl)c1)NS(=O)(=O)c1cccc(Cl)c1` [Example 3, N,N′-[dithiobis(ethane-2,1-diyliminocarbonyl)]bis(3-chlorobenzenesulfonamide)] showed a melting point of 165 to 167 °C.

`O=C(NCCCCCCNC(=O)NS(=O)(=O)c1cccc(Cl)c1)NS(=O)(=O)c1cccc(Cl)c1` [Example 1]: in data set [1], the IC50 stood at 17 nM.
